Measured values published in US20250282799A1, “SUBSTITUTED PYRIDO[4,3-d]PYRIMIDINES AS KRAS MODULATORS” (Alterome Therapeutics, Inc., priority 2023, published 2025).

Tested on: KRAS G12V dependent lung adenocarcinoma cell line, NCI-H441
Assay: Cellular pERK (Thr202/Tyr204) FRET/HTRF assay
Format: cell-based
Settings: NCI-H441 (KRAS G12V) cells
Summary of the method: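 Using a mix-and-read HTRF kit, phospho-ERK (Thr202/Tyr204) was detected in NCI-H441 lysates following 1 hr compound incubation at 37 °C, 5% CO2. Cells had been seeded overnight beforehand, and IC50 was derived by curve fitting.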

[1] = Homo sapiens, NCI-H441, cellular pERK HTRF

SMILES | IC50 [1] [nM] | IC50 (cellular pERK HTRF) [nM]
[2H]C([2H])(Oc1nc(N2CCCC[C@H]3[C@H](F)[C@H]32)c2cnc(-c3cc(O)cc4ccc(F)c(C#C)c34)c(C)c2n1)[C@@]12CCCN1CC(=C)C2 [Example 461, 5-Ethynyl-6-fluoro-4-(4-((1S,7R,8S)-8-fluoro-2-azabicyclo[5.1.0]octan-2-yl)-8-methyl-2-(((S)-2-methylenetetrahydro-1H-pyrrolizin-7a(5H)-yl)methoxy-d2)pyrido[4,3-d]pyrimidin-7-yl)naphthalen-2-ol] | < 50 | –
[2H]C([2H])(Oc1nc(N2CCCC[C@H]3[C@H](F)[C@H]32)c2cnc(-c3cc(O)cc4ccc(F)c(C#C)c34)c(C)c2n1)[C@]12CC(=C)CN1CCC21CC1 [Example 462, 5-Ethynyl-6-fluoro-4-(4-((1S,7R,8S)-8-fluoro-2-azabicyclo[5.1.0]octan-2-yl)-8-methyl-2-(((R)-6′-methylenetetrahydrospiro[cyclopropane-1,1′-pyrrolizin]-7a′(5′H)-yl)methoxy-d2)pyrido[4,3-d]pyrimidin-7-yl)naphthalen-2-ol] | < 50 | –
[2H]C([2H])(Oc1nc(N2CCCC[C@H]3[C@H](F)[C@H]32)c2cnc(-c3cc(O)cc4ccc(F)c(C#C)c34)c(C)c2n1)[C@@]12CCCN1C[C@H](F)C2 [Example 463, 5-Ethynyl-6-fluoro-4-(4-((1S,7R,8S)-8-fluoro-2-azabicyclo[5.1.0]octan-2-yl)-2-(((2R,7aS)-2-fluorotetrahydro-1H-pyrrolizin-7a(5H)-yl)methoxy-d2)-8-methylpyrido[4,3-d]pyrimidin-7-yl)naphthalen-2-ol] | < 50 | –
[2H]C([2H])(Oc1nc(N2CCCC[C@H]3[C@H](Cl)[C@H]32)c2cnc(-c3cc(N)cc4ccc(F)c(C#C)c34)c(C)c2n1)[C@@]12CCCN1C[C@H](F)C2 [Example 464, 4-(4-((1S,7R,8S)-8-chloro-2-azabicyclo[5.1.0]octan-2-yl)-2-(((2R,7aS)-2-fluorotetrahydro-1H-pyrrolizin-7a(5H)-yl)methoxy-d2)-8-methylpyrido[4,3-d]pyrimidin-7-yl)-5-ethynyl-6-fluoronaphthalen-2-amine] | < 50 | –
[2H]C([2H])(Oc1nc(N2CCCC[C@@H]3[C@@H](Cl)[C@@H]32)c2cnc(-c3cc(N)cc4ccc(F)c(C#C)c34)c(C)c2n1)[C@@]12CCCN1C[C@H](F)C2 [Example 465, 4-(4-((1R,7S,8R)-8-chloro-2-azabicyclo[5.1.0]octan-2-yl)-2-(((2R,7aS)-2-fluorotetrahydro-1H-pyrrolizin-7a(5H)-yl)methoxy-d2)-8-methylpyrido[4,3-d]pyrimidin-7-yl)-5-ethynyl-6-fluoronaphthalen-2-amine] | 500 to 10000 | –
[2H]C([2H])(Oc1nc(N2CCOC[C@H]3[C@H](F)[C@H]32)c2cc(F)c(-c3cc(O)cc4ccc(F)c(C#C)c34)c(C)c2n1)[C@@]12CCCN1C[C@H](F)C2 [Example 469, 5-ethynyl-6-fluoro-4-((S)-6-fluoro-4-((1S,7S,8S)-8-fluoro-5-oxa-2-azabicyclo[5.1.0]octan-2-yl)-2-(((2R,7aS)-2-fluorotetrahydro-1H-pyrrolizin-7a(5H)-yl)methoxy-d2)-8-methylquinazolin-7-yl)naphthalen-2-ol] | – | < 50
[2H]C([2H])(Oc1nc(N2CCOC[C@H]3[C@H](F)[C@H]32)c2cc(Cl)c(-c3ccc(F)c4sc(N)c(C#N)c34)c(C)c2n1)[C@@]12CCCN1C[C@H](F)C2 [Example 470, 2-amino-4-(6-chloro-4-((1S,7S,8S)-8-fluoro-5-oxa-2-azabicyclo[5.1.0]octan-2-yl)-2-(((2R,7aS)-2-fluorotetrahydro-1H-pyrrolizin-7a(5H)-yl)methoxy-d2)-8-methylquinazolin-7-yl)-7-fluorobenzo[b]thiophene-3-carbonitrile] | < 50 | –
[2H]C([2H])(Oc1nc(N2CCOC[C@H]3[C@H](F)[C@H]32)c2cnc(-c3cc(O)cc4ccc(F)c(C#C)c34)c(C)c2n1)[C@@]12CCCN1[C@H](C)[C@H](F)C2 [Example 471, 5-ethynyl-6-fluoro-4-(2-(((2R,3R,7aS)-2-fluoro-3-methyltetrahydro-1H-pyrrolizin-7a(5H)-yl)methoxy-d2)-4-((1S,7S,8S)-8-fluoro-5-oxa-2-azabicyclo[5.1.0]octan-2-yl)-8-methylpyrido[4,3-d]pyrimidin-7-yl)naphthalen-2-ol] | < 50 | –
[2H]C([2H])(Oc1nc(N2CCOC[C@H]3[C@H](F)[C@H]32)c2cnc(-c3cc(O)cc4ccc(F)c(C#C)c34)c(F)c2n1)[C@@]12CCCN1[C@H](C)[C@H](F)C2 [Example 472, 5-ethynyl-6-fluoro-4-(8-fluoro-2-(((2R,3R,7aS)-2-fluoro-3-methyltetrahydro-1H-pyrrolizin-7a(5H)-yl)methoxy-d2)-4-((1S,7S,8S)-8-fluoro-5-oxa-2-azabicyclo[5.1.0]octan-2-yl)pyrido[4,3-d]pyrimidin-7-yl)naphthalen-2-ol] | < 50 | –
[2H]C([2H])(Oc1nc(N2CCCC[C@H]3[C@H](F)[C@H]32)c2cnc(-c3cc(O)cc4ccc(F)c(C#C)c34)c(C)c2n1)[C@@]12CCCN1[C@H](C)[C@H](F)C2 [Example 473, 5-ethynyl-6-fluoro-4-(2-(((2R,3R,7aS)-2-fluoro-3-methyltetrahydro-1H-pyrrolizin-7a(5H)-yl)methoxy-d2)-4-((1S,7R,8S)-8-fluoro-2-azabicyclo[5.1.0]octan-2-yl)-8-methylpyrido[4,3-d]pyrimidin-7-yl)naphthalen-2-ol] | < 50 | –
[2H]C([2H])(Oc1nc(N2CCCC[C@H]3[C@H](F)[C@H]32)c2cnc(-c3cc(O)cc4ccc(F)c(C#C)c34)c(F)c2n1)[C@@]12CCCN1[C@H](C)[C@H](F)C2 [Example 474, 5-ethynyl-6-fluoro-4-(8-fluoro-2-(((2R,3R,7aS)-2-fluoro-3-methyltetrahydro-1H-pyrrolizin-7a(5H)-yl)methoxy-d2)-4-((1S,7R,8S)-8-fluoro-2-azabicyclo[5.1.0]octan-2-yl)pyrido[4,3-d]pyrimidin-7-yl)naphthalen-2-ol] | < 50 | –
[2H]C([2H])(Oc1nc(N2CCOC[C@H]3[C@H](Cl)[C@H]32)c2cnc(-c3cc(O)cc4ccc(F)c(C#C)c34)c(F)c2n1)[C@@]12CCCN1[C@H](C)[C@H](F)C2 [Example 475, 4-(4-((1S,7S,8S)-8-chloro-5-oxa-2-azabicyclo[5.1.0]octan-2-yl)-8-fluoro-2-(((2R,3R,7aS)-2-fluoro-3-methyltetrahydro-1H-pyrrolizin-7a(5H)-yl)methoxy-d2)pyrido[4,3-d]pyrimidin-7-yl)-5-ethynyl-6-fluoronaphthalen-2-ol] | < 50 | –
C#Cc1c(F)ccc2cc(N)cc(-c3ncc4c(N5CCOC[C@H]6[C@H](F)[C@H]65)nc(OCC56CCN5CC(F)(F)C6)nc4c3F)c12 (stereo partly drawn) [Example 476, 4-(2-((3,3-difluoro-1-azabicyclo[3.2.0]heptan-5-yl)methoxy)-8-fluoro-4-((1S,7S,8S)-8-fluoro-5-oxa-2-azabicyclo[5.1.0]octan-2-yl)pyrido[4,3-d]pyrimidin-7-yl)-5-ethynyl-6-fluoronaphthalen-2-amine] | < 50 | –
C#Cc1c(F)ccc2cc(N)cc(-c3ncc4c(N5CCOC[C@H]6[C@H](F)[C@H]65)nc(OCC5CCC6COCCN65)nc4c3F)c12 (stereo partly drawn) [Example 477, 5-ethynyl-6-fluoro-4-(8-fluoro-4-((1S,7S,8S)-8-fluoro-5-oxa-2-azabicyclo[5.1.0]octan-2-yl)-2-((hexahydro-1H-pyrrolo[2,1-c][1,4]oxazin-6-yl)methoxy)pyrido[4,3-d]pyrimidin-7-yl)naphthalen-2-amine] | < 50 | –
